Assay results taken from US20090035220A1, “HIGH THROUGHPUT SCREENING SYSTEM AND METHOD” (priority 2007, published 2009).

Test system: zebrafish larvae
Experiment: Ammonia excretion as an indicator of locomotor response to electrical stimulus
Assay type: in vivo, Danio rerio
Details: MS-222 0.10 mg/mL in media; 30 larvae (4 dpf) per well; stimuli 3 uA, 50 msec, 30 times per hour for 12 hours; colorimetric ammonia assay; FIG. 7
Procedure: To create the graphs in the subsequent Examples, the initial conditions consisted of harvesting fertilized zebrafish eggs and placing them into embryo media and housed in an incubator with a constant temperature of 28.5° C. for the first several days of development, and throughout the course of experimentation. Embryo media consists of ultrapure water with 5 mM NaCl, 0.17 mM KCl, 0.33 mM CaCl2, 0.3 mm MgSO4 added. Embryo media was be used to make all final dilutions of test agents.
After the first 24 hours of incubation, the zebrafish larvae were treated with pronase solution (2 mg/ml in Embryo Medium) for several minutes to remove the larvae from their chorion. […] The 96-well plates were maintained in incubators at 28.5° C. and were removed from incubators only for testing or to refresh media.
Excretion of ammonia is a necessary consequence of protein breakdown. When proteins are converted to carbohydrates to provide energy, the amino group is removed and must be dealt with. In animals, the amino group is quickly oxidized to form ammonia. […] The concentration of ammonia excreted by the larvae was quantified by taking a sample of the media following the Examples and assaying it with a commercially available colorimetric assay kit (Ammonia Assay Kit #A1000, Sigma Biochemical) […]

CCOC(=O)c1cccc(N)c1.CS(=O)(=O)O [MS-222]
locomotor response of zebrafish to an electrical stimulus, based on excretion of ammonia: decreases the locomotor response
